Here are results for 17 compounds from paper PMC2797373 (Bioorganic & medicinal chemistry, 2009).

Each structure is given as a SMILES string.

For orientation: inhibition means the drop in the measured response relative to a control, in per cent.

Sequence of human A2AAR (P29274 whole entry): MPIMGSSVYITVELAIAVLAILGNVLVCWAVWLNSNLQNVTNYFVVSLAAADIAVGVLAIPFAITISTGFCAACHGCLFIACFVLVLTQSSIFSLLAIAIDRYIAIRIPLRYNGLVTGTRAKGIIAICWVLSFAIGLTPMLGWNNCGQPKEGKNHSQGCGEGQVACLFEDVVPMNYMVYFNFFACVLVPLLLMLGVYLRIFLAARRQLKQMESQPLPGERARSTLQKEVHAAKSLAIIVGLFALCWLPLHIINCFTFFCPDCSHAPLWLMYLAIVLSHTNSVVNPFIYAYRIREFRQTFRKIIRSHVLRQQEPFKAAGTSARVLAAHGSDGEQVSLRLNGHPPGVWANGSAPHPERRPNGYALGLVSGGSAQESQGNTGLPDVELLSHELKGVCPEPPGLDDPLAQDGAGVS

Test system in the first assay: not given
Assay: not given
The note with it: cited from earlier work.
Turning to `CNC(=O)[C@H]1S[C@@H](n2cnc3c(NCc4cccc(I)c4)nc(Cl)nc32)[C@H](O)[C@@H]1O` [Compound 3, thio-Cl-IB-MECA], the “In vivo anticancer activity” value is listed as “potent”.

Another assay has as its target human A2AAR (Homo sapiens, UniProt P29274). Put plainly: Radioligand binding at human A2AAR expressed in CHO cells. The note with it: read-out: % inhibition at 1 µM (hA2AAR).
With `CNC(=O)[C@H]1S[C@@H](n2cnc3c(NC)nc(Cl)nc32)[C@H](O)[C@@H]1O` [Compound 4, reference compound], the inhibition at 1 µM stood at 20%. Still for that read-out and setting: to `CNC(=O)[C@H]1S[C@@H](n2cnc3c(NC)ncnc32)[C@H](O)[C@@H]1O` [Compound 5a, N^6-Methyl-9-(5’-methylaminocarbonyl-4’-thio-β-D-ribofuranosyl)adenine] belongs 35 ± 8%. `CCNC(=O)[C@H]1S[C@@H](n2cnc3c(NC)ncnc32)[C@H](O)[C@@H]1O` [Compound 5b, 9-(5’-Ethylaminocarbonyl-4’-thio-β-D-ribofuranosyl)-N^6-methyladenine]: the inhibition at 1 µM came out at 20%. Regarding `CNc1ncnc2c1ncn2[C@@H]1S[C@H](C(=O)NCC2CC2)[C@@H](O)[C@H]1O` [Compound 5d, 9-(5’-Cyclopropylmethylaminocarbonyl-4’-thio-β-D-ribofuranosyl)-N^6-methyladenine], the inhibition at 1 µM came to 38 ± 5%. The same measure, in the same setting: as for `CNc1ncnc2c1ncn2[C@@H]1S[C@H](C(=O)NC2CCCC2)[C@@H](O)[C@H]1O` [Compound 5f, 9-(5’-Cyclopentylaminocarbonyl-4’-thio-β-D-ribofuranosyl)-N^6-methyladenine], the figure is 45 ± 1%; as for `CNc1ncnc2c1ncn2[C@@H]1S[C@H](C(=O)NCc2cccc(I)c2)[C@@H](O)[C@H]1O` [Compound 5g, 9-[(5’-(3-Iodo-benzylaminocarbonyl)-4’-thio-β-D-ribofuranosyl)]-N^6-methyladenine], 27 ± 10%; as for `O=C(NC1CCCCC1)[C@H]1S[C@@H](n2cnc3c(NCc4cccc(I)c4)ncnc32)[C@H](O)[C@@H]1O` [Compound 5m, 9-(5’-Cyclohexylaminocarbonyl-4’-thio-β-D-ribofuranosyl)-N^6-(3-iodobenzyl)adenine], 24 ± 7%. On the same count and under the same terms, to `O=C(NCc1cccc(F)c1)[C@H]1S[C@@H](n2cnc3c(NCc4cccc(I)c4)ncnc32)[C@H](O)[C@@H]1O` [Compound 5n, 9-[5’-(3-Fluoro-benzylaminocarbonyl-4’-thio-β-D-ribofuranosyl)]-N^6-(3-iodobenzyl)adenine] belongs 35 ± 8%.

Regarding `O=C(NCc1cccc(Cl)c1)[C@H]1S[C@@H](n2cnc3c(NCc4cccc(I)c4)ncnc32)[C@H](O)[C@@H]1O` [Compound 5o, 9-[5’-(3-Chloro-benzylaminocarbonyl-4’-thio-β-D-ribofuranosyl)]-N^6-(3-iodobenzyl)adenine], the inhibition at 1 µM was 44 ± 1%.

For the compound `Cc1ccccc1CNC(=O)[C@H]1S[C@@H](n2cnc3c(NCc4cccc(I)c4)ncnc32)[C@H](O)[C@@H]1O` [Compound 5p, N^6-(3-Iodo-benzyl)-9-[5’-(2-methyl-benzylaminocarbonyl-4’-thio-β-D-ribofuranosyl)]adenine], the inhibition at 1 µM is 26 ± 10%.

For `Cc1cccc(CNC(=O)[C@H]2S[C@@H](n3cnc4c(NCc5cccc(I)c5)ncnc43)[C@H](O)[C@@H]2O)c1` [Compound 5q, N^6-(3-Iodo-benzyl)-9-[5’-(3-methyl-benzylaminocarbonyl-4’-thio-β-D-ribofuranosyl)]adenine], the inhibition at 1 µM was 31 ± 1%.

Turning to `Cc1ccc(CNC(=O)[C@H]2S[C@@H](n3cnc4c(NCc5cccc(I)c5)ncnc43)[C@H](O)[C@@H]2O)cc1` [Compound 5r, N^6-(3-Iodo-benzyl)-9-[5’-(4-methyl-benzylaminocarbonyl-4’-thio-β-D-ribofuranosyl)]adenine], the inhibition at 1 µM came out at 37%. On the same count and under the same terms, as for `COc1ccccc1CNC(=O)[C@H]1S[C@@H](n2cnc3c(NCc4cccc(I)c4)ncnc32)[C@H](O)[C@@H]1O` [Compound 5s, N^6-(3-Iodo-benzyl)-9-[5’-(2-methoxy-benzylaminocarbonyl-4’-thio-β-D-ribofuranosyl)]adenine], the figure is 28 ± 9%; as for `CCOc1ccccc1CNC(=O)[C@H]1S[C@@H](n2cnc3c(NCc4cccc(I)c4)ncnc32)[C@H](O)[C@@H]1O` [Compound 5t, 9-[5’-(2-Ethoxy-benzylaminocarbonyl-4’-thio-β-D-ribofuranosyl)]-N^6-(3-iodobenzyl)adenine], 23 ± 8%. On the same count and under the same terms, to `O=C(NCCc1ccccc1)[C@H]1S[C@@H](n2cnc3c(NCc4cccc(I)c4)ncnc32)[C@H](O)[C@@H]1O` [Compound 5v, N^6-(3-Iodo-benzyl)-9-[5’-(2-phenetylaminocarbonyl-4’-thio-β-D-ribofuranosyl)]adenine] belongs 11%.

Another assay addresses T1, human A3 adenosine receptor (Homo sapiens, UniProt P0DMS8).
T1 sequence (P0DMS8 1-318): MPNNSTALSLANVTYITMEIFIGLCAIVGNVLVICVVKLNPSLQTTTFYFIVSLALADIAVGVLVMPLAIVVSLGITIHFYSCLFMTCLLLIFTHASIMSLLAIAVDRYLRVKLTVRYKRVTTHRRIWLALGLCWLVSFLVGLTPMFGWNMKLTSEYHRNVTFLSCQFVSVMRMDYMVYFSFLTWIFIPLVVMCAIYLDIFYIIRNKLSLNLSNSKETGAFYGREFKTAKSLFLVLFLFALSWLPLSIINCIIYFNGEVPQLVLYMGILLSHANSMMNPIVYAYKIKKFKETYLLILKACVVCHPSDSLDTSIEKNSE
Assay: not given
Type of assay: cell-based. The settings on record: transfected CHO cells.
With `CNC(=O)[C@H]1S[C@@H](n2cnc3c(NCc4cccc(I)c4)ncnc32)[C@H](O)[C@@H]1O` [Compound 5h, N^6-(3-Iodo-benzyl)-9-(5’-methylaminocarbonyl-4’-thio-β-D-ribofuranosyl)adenine], the “Agonist efficacy at human A3AR (inhibition of cyclic AMP)” value is reported as “full agonist”.

Test system in another assay: not given
Assay: not given
The settings on record: cited from earlier work. This is another data set of the same source.
On to `CNC(=O)[C@H]1S[C@@H](n2cnc3c(NCc4cccc(I)c4)nc(Cl)nc32)[C@H](O)[C@@H]1O` [Compound 3, thio-Cl-IB-MECA], for which the “In vitro anticancer activity” value is “potent”.
